# According to the supplement of paper PMC10307832:
# Tests used:
# Test in all cases: relative viability (nuclei count vs DMSO), 5 days (fraction); higher = more cells survive
# Halofuginone + Alpelisib = compound: O=C(C[C@H]1NCCC[C@@H]1O)Cn1cnc2cc(Br)c(Cl)cc2c1=O (racemic) [Halofuginone] + Cc1nc(NC(=O)N2CCC[C@H]2C(N)=O)sc1-c1ccnc(C(C)(C)C(F)(F)F)c1 [Alpelisib] (partner 2 µM)
# Summary of the method: (§1)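 Lung cancer cell lines in 1536-well plates were dosed by pin tool the day after seeding, either with one drug alone or with a fixed anchor-drug dose plus five library-drug doses (not always all listed) in √10 steps. After 5 days, cells were fixed and their nuclei stained in one step (final 0.05% Triton X-100, 1% formaldehyde, 1 ug/ml Hoechst), then counted on 4× images. Relative viability is the nuclei count in treated wells divided by that in vehicle wells. Values are medians of duplicate plates.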
# Cediranib + Luminespib = compound: COc1cc2c(Oc3ccc4[nH]c(C)cc4c3F)ncnc2cc1OCCCN1CCCC1 [Cediranib] + CCNC(=O)c1noc(-c2cc(C(C)C)c(O)cc2O)c1-c1ccc(CN2CCOCC2)cc1 [Luminespib] (partner 0.01 µM)
# Summary of the method: as §1
# Decitabine + Lapatinib = compound: Nc1ncn([C@H]2C[C@H](O)[C@@H](CO)O2)c(=O)n1 [Decitabine] + CS(=O)(=O)CCNCc1ccc(-c2ccc3ncnc(Nc4ccc(OCc5cccc(F)c5)c(Cl)c4)c3c2)o1 [Lapatinib] (partner 2 µM)
# Summary of the method: as §1
# [1] = compound: O=C(C[C@H]1NCCC[C@@H]1O)Cn1cnc2cc(Br)c(Cl)cc2c1=O (racemic) [Halofuginone] + CC(C)C[C@H](NC(=O)[C@H](Cc1ccccc1)NC(=O)c1cnccn1)B(O)O [Bortezomib] (partner 0.002 µM)
# Summary of the method: as §1
Cell Line,relative viability (Halofuginone + Alpelisib; first compound 0.001 µM),relative viability (Halofuginone + Alpelisib; first compound 0.003162 µM),relative viability (Halofuginone + Alpelisib; first compound 0.01 µM),relative viability (Halofuginone + Alpelisib; first compound 0.03162 µM),relative viability (Halofuginone + Alpelisib; first compound 0.1 µM),relative viability (Cediranib + Luminespib; first compound 0.04 µM),relative viability (Cediranib + Luminespib; first compound 0.1265 µM),relative viability (Cediranib + Luminespib; first compound 0.4 µM),relative viability (Cediranib + Luminespib; first compound 1.265 µM),relative viability (Cediranib + Luminespib; first compound 4 µM),relative viability (Decitabine + Lapatinib; first compound 0.1265 µM),relative viability (Decitabine + Lapatinib; first compound 0.4 µM),relative viability (Decitabine + Lapatinib; first compound 1.265 µM),relative viability (Decitabine + Lapatinib; first compound 4 µM),relative viability ([1]; first compound 0.001 µM),relative viability ([1]; first compound 0.003162 µM),relative viability ([1]; first compound 0.01 µM),relative viability ([1]; first compound 0.03162 µM),relative viability ([1]; first compound 0.1 µM),relative viability (Decitabine + Lapatinib; first compound 0.04 µM)
PC-3 [JPC-3],1.09,1.03,0.95,1.01,0.92,0.649,0.654,0.665,0.735,0.449,0.467,0.269,0.421,0.383,0.852,0.875,0.736,0.799,0.873,–
HCC-44,0.804,0.774,0.691,0.797,0.433,–,–,0.986,1.07,0.843,1,0.298,0.661,0.51,0.926,0.848,0.794,0.802,0.575,0.84
NCI-H2405,0.94,0.939,0.839,0.757,0.546,0.897,0.712,0.649,0.657,0.532,0.904,0.679,0.553,0.434,1.07,0.948,0.968,0.943,0.904,0.942
LXF-289,1.04,1.08,1.01,0.994,0.852,0.719,0.52,0.587,0.7,0.55,0.733,0.484,0.402,0.354,0.928,1.08,0.985,0.996,0.908,0.809
LOU-NH91,0.774,0.731,0.721,0.741,0.64,0.354,0.272,0.286,0.314,0.338,0.712,0.649,0.689,0.661,0.461,0.498,0.484,0.459,0.535,0.764
A549,0.919,0.765,0.685,0.44,0.15,–,–,–,–,–,0.843,0.49,0.305,0.19,–,–,–,–,–,0.898
H3255,0.664,0.619,0.558,0.683,0.606,0.83,–,0.879,0.709,0.992,0.193,0.201,0.164,0.205,0.906,0.664,0.616,0.767,0.651,0.226
NCI-H1395,1.06,1.03,1.01,0.866,0.608,0.787,0.569,0.734,0.754,0.535,0.675,0.571,0.528,0.821,–,–,–,–,–,0.819
LC-2-ad,0.952,0.847,0.861,0.772,0.334,1.05,1.06,0.99,1.08,0.772,0.775,0.317,0.245,0.37,1.3,1.08,0.972,1.01,0.667,0.676
NCI-H838,1.05,0.961,1.05,0.566,0.111,0.328,0.289,0.276,0.314,0.272,0.549,0.226,0.307,0.205,1.16,1.03,0.746,0.614,0.121,0.566
Calu-6,1.16,1.01,0.94,0.362,0.17,–,–,–,–,–,0.689,0.316,0.308,0.264,1.04,1.17,0.974,0.452,0.137,0.87
LCLC-97TM1,0.298,0.23,0.305,0.209,0.199,0.918,0.776,0.787,0.771,0.842,0.335,0.173,0.169,0.126,0.49,0.365,0.512,0.144,0.179,0.576
HCC-15,0.847,0.903,0.861,0.888,0.683,0.188,–,0.261,0.225,0.425,0.778,0.223,0.345,0.366,1.02,1.14,1.05,1.03,0.952,0.634
CAL-12T,1.4,1.16,1.03,1.11,1.02,0.242,0.369,0.364,0.359,0.361,0.698,0.264,0.504,0.375,1.13,1.04,–,1.37,0.894,0.607
NCI-H727,0.623,0.437,0.478,0.456,0.221,–,–,0.511,0.463,0.395,0.659,0.483,0.447,0.433,0.981,0.798,0.927,0.856,0.468,0.709
ABC-1,1.2,0.936,1,0.947,1.03,0.885,0.714,–,0.44,0.486,1.26,1.16,0.861,0.981,0.255,0.328,0.24,0.367,0.279,1.27
NCI-H2023,0.645,0.624,0.519,0.281,0.147,0.844,0.639,0.732,0.405,0.53,0.519,0.125,0.231,0.157,0.981,1.07,0.957,0.421,0.0849,0.55
NCI-H2342,–,–,–,–,–,0.858,0.801,0.919,0.704,0.82,–,–,–,–,–,–,–,–,–,–
SW 1573,0.735,0.748,0.717,0.645,0.618,0.347,0.324,0.256,0.21,0.24,0.993,1.05,0.646,0.515,1.03,1.02,1.15,0.653,0.227,1.03
NCI-H1993,0.696,0.677,0.664,0.711,0.57,0.637,0.901,0.906,0.851,0.597,0.774,0.8,0.731,0.725,1.27,1.14,1.07,1.27,0.786,0.837

Cell Line,relative viability (Halofuginone + Alpelisib; first compound 0.001 µM),relative viability (Halofuginone + Alpelisib; first compound 0.003162 µM),relative viability (Halofuginone + Alpelisib; first compound 0.01 µM),relative viability (Halofuginone + Alpelisib; first compound 0.03162 µM),relative viability (Halofuginone + Alpelisib; first compound 0.1 µM),relative viability (Cediranib + Luminespib; first compound 0.04 µM),relative viability (Cediranib + Luminespib; first compound 0.1265 µM),relative viability (Cediranib + Luminespib; first compound 0.4 µM),relative viability (Cediranib + Luminespib; first compound 1.265 µM),relative viability (Cediranib + Luminespib; first compound 4 µM),relative viability (Decitabine + Lapatinib; first compound 0.1265 µM),relative viability (Decitabine + Lapatinib; first compound 0.4 µM),relative viability (Decitabine + Lapatinib; first compound 1.265 µM),relative viability (Decitabine + Lapatinib; first compound 4 µM),relative viability ([1]; first compound 0.001 µM),relative viability ([1]; first compound 0.003162 µM),relative viability ([1]; first compound 0.01 µM),relative viability ([1]; first compound 0.03162 µM),relative viability ([1]; first compound 0.1 µM),relative viability (Decitabine + Lapatinib; first compound 0.04 µM)
NCI-H661,0.687,0.65,0.53,0.817,0.68,0.978,0.842,0.913,0.908,0.982,0.455,0.382,0.297,0.269,0.848,0.826,0.845,0.822,0.536,0.465
ChaGo-K-1,–,–,–,–,–,0.588,0.621,0.525,0.638,0.738,–,–,–,–,0.996,0.875,0.948,1.05,0.91,–
SK-MES-1,0.952,1.32,0.853,0.832,0.522,0.797,0.869,0.9,0.833,0.86,0.49,0.406,0.383,0.286,–,–,–,–,–,0.463
NCI-H1703,0.334,0.398,0.239,0.27,0.165,–,–,–,–,–,0.652,0.484,0.36,0.274,0.363,0.333,0.305,0.282,0.224,0.698
NCI-H1650,–,–,–,–,–,0.192,0.161,0.179,0.197,0.173,0.649,0.217,0.494,0.372,0.234,0.24,0.208,0.221,0.203,0.595
NCI-H522,–,–,–,–,–,1.13,–,1.17,1.03,1.02,–,–,–,–,–,–,–,–,–,–
LCLC-103H,1.09,1.02,0.915,0.954,0.956,0.931,1.05,0.952,1,0.894,–,–,–,–,1.06,0.9,1.1,0.956,1.03,–
NCI-H1793,0.687,0.666,0.623,0.722,0.396,0.182,0.176,0.224,–,0.201,0.604,0.489,0.562,0.291,–,–,–,–,–,0.543
NCI-H358,0.898,0.818,0.711,0.305,0.164,0.257,0.426,0.381,0.328,0.364,0.512,0.388,0.284,0.334,–,–,–,–,–,0.468
SW 900,–,–,–,–,–,0.167,0.186,0.195,0.188,0.169,–,–,–,–,–,–,–,–,–,–
NCI-H1623,–,–,–,–,–,0.528,–,0.425,0.457,0.526,–,–,–,–,–,–,–,–,–,–
IA-LM,0.829,0.982,0.664,0.606,0.161,–,–,–,–,–,0.306,0.212,0.169,0.178,0.894,0.741,0.664,0.533,0.0776,0.503
NCI-H2170,0.863,0.846,0.799,0.681,0.656,0.654,0.704,0.666,0.547,0.848,0.267,0.268,0.251,0.249,–,–,–,–,–,0.281
HCC-366,0.369,0.412,0.449,0.385,0.197,–,–,–,–,–,1.07,0.214,0.164,0.113,0.948,1.06,1.04,0.994,0.397,0.938
HCC-78,0.409,0.327,0.299,0.374,0.215,–,–,–,–,–,0.862,0.46,0.411,0.388,0.653,0.42,0.445,0.543,0.369,0.819
EBC-1,0.939,0.779,0.666,0.441,0.181,–,–,–,–,–,0.163,0.162,0.195,0.152,0.507,0.616,0.458,0.325,0.135,0.2
NCI-H1944,0.829,0.85,0.827,0.839,0.68,0.767,0.796,0.741,0.72,0.963,0.819,0.526,0.428,0.416,–,–,–,–,–,0.807
LK-2,0.949,1.13,1.02,1.14,0.926,0.217,0.16,0.196,0.159,0.188,0.991,0.75,0.521,0.402,–,–,–,–,–,0.784
NCI-H441,0.602,0.605,0.623,0.664,0.262,0.471,–,0.273,0.341,0.279,–,–,–,–,0.456,0.457,0.6,0.491,0.433,–
NCI-H1299,1.04,1.09,1.02,1.01,1.04,–,–,–,–,–,0.989,0.953,0.918,0.855,1.08,1.02,1,0.986,0.851,0.972
